Measured values from ChEMBL document CHEMBL3351888, “Synthesis and Pharmacological Evaluation of DHβE Analogues as Neuronal Nicotinic Acetylcholine Receptor Antagonists” (ACS Med Chem Lett, 2014).

What was measured:
[1] = target: T1, Neuronal acetylcholine receptor; alpha4/beta2 (Rattus norvegicus, UniProt P09483+P12390); test: Inhibition of rat membrane alpha4beta2 nAChR by [3H]cytisine binding assay
[2] = target: T1, Neuronal acetylcholine receptor; alpha4/beta2; test: Displacement of [3H]epibatidine from rat alpha4beta2 nAChR transfected in HEK293 cells after 4 hrs by scintillation count analysis; assay type: cell-based
[3] = target: Neuronal acetylcholine receptor; alpha4/beta4 (Rattus norvegicus, UniProt P09483+P12392); test: Displacement of [3H]epibatidine from rat alpha4beta4 nAChR transfected in HEK293 cells after 4 hrs by scintillation count analysis; assay type: cell-based
Sequence of Neuronal acetylcholine receptor; alpha4/beta4 (P09483 whole entry): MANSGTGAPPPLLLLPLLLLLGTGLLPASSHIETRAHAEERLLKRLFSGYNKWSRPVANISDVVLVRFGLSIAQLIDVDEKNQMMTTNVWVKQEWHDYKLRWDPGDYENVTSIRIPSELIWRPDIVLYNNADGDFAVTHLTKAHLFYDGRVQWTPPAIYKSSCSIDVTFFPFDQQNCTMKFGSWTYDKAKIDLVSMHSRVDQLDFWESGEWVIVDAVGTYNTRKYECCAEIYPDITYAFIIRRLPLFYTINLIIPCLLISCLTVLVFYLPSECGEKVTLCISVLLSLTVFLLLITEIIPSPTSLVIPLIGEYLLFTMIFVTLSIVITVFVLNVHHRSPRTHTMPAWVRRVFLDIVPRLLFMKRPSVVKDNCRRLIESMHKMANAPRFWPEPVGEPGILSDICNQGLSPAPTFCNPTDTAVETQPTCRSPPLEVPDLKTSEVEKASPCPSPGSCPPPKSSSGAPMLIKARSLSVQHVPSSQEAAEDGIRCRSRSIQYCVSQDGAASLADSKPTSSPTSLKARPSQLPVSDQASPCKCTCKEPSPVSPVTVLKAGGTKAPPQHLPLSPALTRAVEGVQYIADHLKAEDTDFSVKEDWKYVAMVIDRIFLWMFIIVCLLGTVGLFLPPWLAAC
Sequence of Neuronal acetylcholine receptor; alpha4/beta4 (P12392 whole entry): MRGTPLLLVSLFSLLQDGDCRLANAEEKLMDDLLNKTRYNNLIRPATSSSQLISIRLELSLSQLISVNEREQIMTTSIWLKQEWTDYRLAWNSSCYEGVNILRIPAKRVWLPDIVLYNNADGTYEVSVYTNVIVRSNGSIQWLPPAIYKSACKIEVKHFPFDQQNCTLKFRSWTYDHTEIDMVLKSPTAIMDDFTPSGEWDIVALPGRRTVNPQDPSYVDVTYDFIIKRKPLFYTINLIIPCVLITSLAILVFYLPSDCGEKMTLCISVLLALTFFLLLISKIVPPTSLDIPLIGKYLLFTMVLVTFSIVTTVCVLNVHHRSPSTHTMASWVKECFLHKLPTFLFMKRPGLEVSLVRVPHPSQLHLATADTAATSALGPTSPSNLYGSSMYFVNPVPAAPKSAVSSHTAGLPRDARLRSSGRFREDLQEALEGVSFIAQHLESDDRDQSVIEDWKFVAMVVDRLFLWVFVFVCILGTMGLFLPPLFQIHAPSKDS

[4] = target: T2, Neuronal acetylcholine receptor; alpha3/beta4 (Rattus norvegicus, UniProt P04757+P12392); test: Displacement of [3H]epibatidine from rat alpha3beta4 nAChR transfected in HEK293 cells after 4 hrs by scintillation count analysis; assay type: cell-based
T2 sequence (P04757 whole entry): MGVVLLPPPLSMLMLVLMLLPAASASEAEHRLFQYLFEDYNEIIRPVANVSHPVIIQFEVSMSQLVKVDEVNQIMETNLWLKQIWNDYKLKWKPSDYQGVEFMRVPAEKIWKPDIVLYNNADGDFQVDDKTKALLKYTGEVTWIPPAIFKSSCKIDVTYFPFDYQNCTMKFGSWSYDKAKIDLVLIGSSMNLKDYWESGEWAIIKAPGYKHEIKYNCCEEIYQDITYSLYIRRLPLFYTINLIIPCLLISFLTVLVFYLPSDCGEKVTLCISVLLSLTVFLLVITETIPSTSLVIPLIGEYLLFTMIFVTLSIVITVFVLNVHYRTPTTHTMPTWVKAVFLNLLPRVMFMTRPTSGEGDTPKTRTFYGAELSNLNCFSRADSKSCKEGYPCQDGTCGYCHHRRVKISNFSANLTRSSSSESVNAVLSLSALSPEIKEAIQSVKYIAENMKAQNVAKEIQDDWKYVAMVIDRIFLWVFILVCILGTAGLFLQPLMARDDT
T2 sequence (P12392 whole entry): as the sequence (P12392 whole entry) above

[5] = target: Nicotinic acetylcholine receptor alpha-4/beta-2 (Mus musculus, UniProt Q8R493+Q9ERK7); test: Antagonist activity at mouse alpha4beta2 nAChR transfected in HEK293 cells by FLIPR membrane potential blue (FMP) assay; assay type: cell-based
Sequence of Nicotinic acetylcholine receptor alpha-4/beta-2 (Q9ERK7 whole entry): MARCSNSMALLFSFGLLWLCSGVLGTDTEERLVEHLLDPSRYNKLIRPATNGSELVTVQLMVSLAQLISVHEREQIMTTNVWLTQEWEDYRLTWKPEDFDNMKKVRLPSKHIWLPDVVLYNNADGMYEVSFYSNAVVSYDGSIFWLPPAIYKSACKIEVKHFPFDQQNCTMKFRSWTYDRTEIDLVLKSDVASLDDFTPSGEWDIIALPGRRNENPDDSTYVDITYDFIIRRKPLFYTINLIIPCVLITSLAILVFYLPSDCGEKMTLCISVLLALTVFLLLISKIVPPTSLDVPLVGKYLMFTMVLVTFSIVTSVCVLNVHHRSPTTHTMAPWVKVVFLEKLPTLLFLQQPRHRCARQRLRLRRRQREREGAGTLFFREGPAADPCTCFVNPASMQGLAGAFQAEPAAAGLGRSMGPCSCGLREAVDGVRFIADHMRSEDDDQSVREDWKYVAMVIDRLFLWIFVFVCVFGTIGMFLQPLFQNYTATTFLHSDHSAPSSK
Sequence of Nicotinic acetylcholine receptor alpha-4/beta-2 (Q8R493 whole entry): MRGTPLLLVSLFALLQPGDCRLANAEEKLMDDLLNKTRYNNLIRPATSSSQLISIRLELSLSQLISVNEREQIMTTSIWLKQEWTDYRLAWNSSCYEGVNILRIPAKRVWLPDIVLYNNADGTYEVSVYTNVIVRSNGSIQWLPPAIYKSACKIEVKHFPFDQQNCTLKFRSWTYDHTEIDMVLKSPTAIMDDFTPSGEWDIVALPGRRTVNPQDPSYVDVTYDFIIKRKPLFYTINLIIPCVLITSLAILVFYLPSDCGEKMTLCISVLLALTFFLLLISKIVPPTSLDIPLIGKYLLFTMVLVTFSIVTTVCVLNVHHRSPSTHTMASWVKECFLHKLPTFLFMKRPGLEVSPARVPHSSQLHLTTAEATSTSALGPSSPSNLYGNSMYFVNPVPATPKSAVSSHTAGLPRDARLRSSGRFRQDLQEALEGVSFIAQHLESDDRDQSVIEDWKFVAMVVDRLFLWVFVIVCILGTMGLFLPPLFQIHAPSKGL

[6] = target: T2, Neuronal acetylcholine receptor; alpha3/beta4; test: Antagonist activity at rat alpha3beta4 nAChR transfected in HEK293 cells by FLIPR membrane potential blue (FMP) assay; assay type: cell-based

T1 sequence (P09483 whole entry): as the sequence (P09483 whole entry) above
T1 sequence (P12390 whole entry): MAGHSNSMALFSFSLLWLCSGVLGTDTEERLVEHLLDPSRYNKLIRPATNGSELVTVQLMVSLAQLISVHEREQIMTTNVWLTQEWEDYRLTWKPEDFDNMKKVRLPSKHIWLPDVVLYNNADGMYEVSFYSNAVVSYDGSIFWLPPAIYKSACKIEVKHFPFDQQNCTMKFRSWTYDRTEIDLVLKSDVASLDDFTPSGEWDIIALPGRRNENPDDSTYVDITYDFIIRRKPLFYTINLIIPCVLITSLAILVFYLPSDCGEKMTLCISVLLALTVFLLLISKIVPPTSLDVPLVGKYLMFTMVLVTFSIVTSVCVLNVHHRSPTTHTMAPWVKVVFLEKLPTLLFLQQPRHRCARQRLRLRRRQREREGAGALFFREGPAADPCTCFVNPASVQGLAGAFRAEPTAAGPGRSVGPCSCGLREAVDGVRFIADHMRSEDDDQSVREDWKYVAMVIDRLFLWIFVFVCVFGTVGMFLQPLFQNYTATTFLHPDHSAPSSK

| SMILES | Ki [1] [µM] | Ki [2] [µM] | Ki [3] [µM] | Ki [4] [µM] | IC50 [5] [µM] | IC50 [6] [µM] |
| --- | --- | --- | --- | --- | --- | --- |
| CO[C@H]1CC=C2CCN3CCC4=C(CC(=O)OC4)[C@]23C1 | 0.14 | 0.82 | 100 | 100 | 1.2 | – |
| CO[C@H]1CC[C@H]2CCN3CCC4=C(CC(=O)OC4)[C@]23C1 | 7.4 | – | – | – | – | – |
| CO[C@H]1C=CC2=CCN3CCC4=C(CC(=O)OC4)[C@]23C1 | 1.1 | – | – | – | – | – |
| CO[C@H]1CC[C@H]2CCN(C)[C@H]2C1 (racemic) | – | 300 | > 300 | > 300 | > 300 | > 300 |
| CO[C@H]1CC=C2CCN(C)[C@H]2C1 (racemic) | – | 3.4 | 100 | 100 | 30 | > 300 |
| CO[C@H]1C=CC2=CCN(C)[C@H]2C1 (racemic) | – | 30 | > 300 | > 300 | 100 | > 300 |
| CN1CC[C@@H]2CC[C@H](O)C[C@@H]21 (racemic) | – | > 300 | > 300 | > 300 | > 300 | > 300 |
| CCO[C@H]1CC[C@H]2CCN(C)[C@H]2C1 (racemic) | – | 300 | > 300 | 300 | > 300 | > 300 |
| CN1CC[C@@H]2CC[C@H](OCc3ccccc3)C[C@@H]21 (racemic) | – | 100 | 300 | 100 | > 300 | > 300 |
| COCCO[C@H]1CC[C@H]2CCN(C)[C@H]2C1 (racemic) | – | 300 | > 300 | 300 | > 300 | > 300 |
| O[C@H]1CC[C@H]2CCN[C@H]2C1 (racemic) | – | > 300 | > 300 | > 300 | > 100 | > 300 |
| CN1CCC2=CC[C@H](O)C[C@@H]21 (racemic) | – | 300 | > 300 | > 300 | > 100 | > 300 |
| CCO[C@H]1CC=C2CCN(C)[C@H]2C1 (racemic) | – | 300 | > 300 | > 300 | > 300 | > 300 |
| CN1CCC2=CC[C@H](OCc3ccccc3)C[C@@H]21 (racemic) | – | 300 | 300 | 300 | > 300 | > 300 |
| COCCO[C@H]1CC=C2CCN(C)[C@H]2C1 (racemic) | – | > 300 | > 300 | > 300 | > 300 | > 300 |
| O[C@H]1CC=C2CCN[C@H]2C1 (racemic) | – | > 300 | > 300 | > 300 | > 300 | > 300 |
| CO[C@H]1CC=C2CCN[C@H]2C1 (racemic) | – | 300 | > 300 | > 300 | 100 | > 300 |
